{
  "source": "patent US20230145406A1",
  "about": "“DIVALENT METAL-CONTAINING BIOMATERIALS AND METHODS OF USE” (University of Oregon, priority 2021, published 2023)",
  "experiment": "Precipitation in filtered concentrated cupric dilactate solution",
  "type": "physicochemical",
  "conditions": "cupric dilactate in water, sonicated, overnight 37° C., 0.45 μm filtered; over 3 weeks",
  "method": "Increased concentrations of cupric dilactate were prepared for use in polymers to achieve higher loading. Excess of cupric dilactate in water (5 g in 10 ml) was prepared and sonicated for 30-120 minutes (15 minutes each x 2-8 times with 10 minutes break between each sonication session) and left overnight at 37° C. The solution obtained was cooled to room temperature and the green liquid containing cupric dilactate was separated from the undissolved cupric dilactate by aspiration and filtering through 0.45 μm syringe filter. […] This solution can be used for loading plugs, for example as described in Examples 1-3.",
  "data": [
    {"smiles": "CC(O)C(=O)[O-].CC(O)C(=O)[O-].[Cu+2]", "note": "(stereo not shown) [cupric dilactate]", "values": [
      {"measurement": "precipitate in the filtrate", "value": "No precipitate was observed"}
    ]}
  ]
}
